Laboratory results from patent publication US8664217B2, “Benzodiazepine compound and pharmaceutical composition” (Otsuka Pharmaceutical Co., Ltd., priority 2008, dated 2014).
pIC50: −log10 of the molar value. Structures can show the parent of a compound that is named as a salt.

Target: T1, human Kv1.5 channels (Homo sapiens, UniProt P22460)
T1 construct: Full-length human Kv1.5 cDNA was cloned from a human heart cDNA library; expressed in transfected cells; host or cells: CHO-K1
Test: Measurement of human Kv1.5 channel current by whole-cell patch clamp method (human Kv1.5-expressing CHO-K1 cell line)
Type: cell-based
Settings: human Kv1.5-expressing CHO-K1 cells, step end current at +40 mV, test compound 0.1, 1, 10 μM
Experimental: Pharmacological Test 1 (1) Production of Human Kv1.5-Expressing CHO-K1 Cell Lines
CHO-K1 cell lines stably expressing human Kv1.5 channels were prepared in the following manner.
Full-length human Kv1.5 cDNA was cloned from a human heart cDNA library (produced by Stratagene). The obtained human Kv1.5 sequence corresponds to the sequence described in FASEB J. 5, 331-337 (1991).
The obtained human Kv1.5 cDNA was inserted into a plasmid encoding a CMV promoter and a G418 resistance marker to produce a Kv1.5 expression vector. The human Kv1.5 expression vector was transfected into CHO-K1 cells by the lipofectamine method. After culturing the cells in an F-12 medium (produced by Invitrogen Corp.) containing 10% FBS (produced by Invitrogen Corp.) for 3 or 4 days, the medium was replaced with a FBS-containing F-12 medium that included 1,000 μg/ml of G418 (produced by Invitrogen Corp.), and single colonies were isolated. The amount of Kv1.5 channel expression in the single colonies was quantified at the mRNA level by RT-PCR and then quantified at the protein level by western blotting. Finally, the expressed current was analyzed by patch clamp method. Cell lines expressing a current of 200 pA or more per cell were selected as channel-expressing cell lines for activity measurement by patch clamp method.
(3) Measurement of Ion Channel Current by Patch Clamp Method (Human Kv1.5-Expressing CHO-K1 Cell Line)
An experiment was carried out using a patch clamp setup at room temperature (20 to 26° C.). A perfusion chamber having a diameter of 20 mm (flow rate: about 5 ml/min) was mounted on the stage of a phase-contrast inverted microscope (produced by Nikon Corporation) placed on a vibration isolated table. A poly-L-lysine (produced by Sigma)-coated coverslip (diameter: 15 mm, produced by Matsunami Glass Ind., Ltd.) on which human Kv1.5-expressing cells were cultured was placed in the perfusion chamber.
Depolarizing stimulation pulses were applied and ionic current was recorded by using a patch clamp amplifier (EPC-7 or EPC-7 PLUS, produced by HEKA) and a personal computer (manufactured by IBM Corp.) in which software for data acquisition and analysis of ion channel current (PULSE 8.77, produced by HEKA) was installed. The current was measured in the whole-cell configuration of the patch-clamp technique. The tip (resistance: 2 to 4 MΩ) of a borosilicate glass pipette (produced by Sutter Instrument Co.) was gently placed on the cell membrane by using a three-dimensional mechanical micromanipulator (produced by Shoshin EM Corporation). […] Subsequently, stronger suction was applied to break the cell membrane. The capacitative current derived from the cell membrane was corrected using a patch clamp amplifier. Subsequently, the series resistance (Rs) between the pipette and the interior of the cell was measured and corrected.
The composition of the extracellular solution used is shown below. Unless otherwise specified, these components were obtained from Wako Pure Chemical Industries, Ltd.
Each test compound was prepared as a 1000-fold concentrated stock solution that was dissolved in DMSO and then diluted in the extracellular solution.
The composition of the electrode internal solution used is shown below. Unless otherwise specified, these components were obtained from Wako Pure Chemical Industries, Ltd.
(5) Measurement of Human Kv1.5 Current
While the membrane potential was bolded at −80 mV, depolarizing pulses (−80 mV for 0.05 seconds→+40 mV for 0.2 seconds →−40 mV for 0.2 seconds→−80 mV for 0.05 seconds) were applied at a stimulation frequency of 1 Hz to measure Kv1.5 channel current. More specifically, first, while perfusing an extracellular solution containing 0.1% DMSO and holding the membrane potential at −80 mV, depolarizing pulses were applied. The current obtained during the pulse application was recorded as a current in the absence of the test compounds. […]

T1 sequence (P22460 whole entry): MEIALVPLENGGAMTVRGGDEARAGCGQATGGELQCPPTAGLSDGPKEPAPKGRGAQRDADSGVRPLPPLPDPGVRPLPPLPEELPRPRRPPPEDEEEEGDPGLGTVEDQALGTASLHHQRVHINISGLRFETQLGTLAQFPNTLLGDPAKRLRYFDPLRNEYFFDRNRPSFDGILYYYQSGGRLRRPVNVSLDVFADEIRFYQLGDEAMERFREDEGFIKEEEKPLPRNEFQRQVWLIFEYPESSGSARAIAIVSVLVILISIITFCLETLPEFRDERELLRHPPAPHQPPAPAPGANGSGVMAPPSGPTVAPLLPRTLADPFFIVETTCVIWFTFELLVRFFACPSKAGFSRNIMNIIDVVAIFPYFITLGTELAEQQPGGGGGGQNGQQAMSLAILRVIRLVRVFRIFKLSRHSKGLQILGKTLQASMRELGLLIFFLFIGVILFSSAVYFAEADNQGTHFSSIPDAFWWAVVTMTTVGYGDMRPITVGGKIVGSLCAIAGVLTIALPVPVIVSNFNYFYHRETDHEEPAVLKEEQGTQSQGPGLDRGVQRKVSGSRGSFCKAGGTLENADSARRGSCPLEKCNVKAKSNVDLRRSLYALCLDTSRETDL

SMILES | pIC50
CCN1C(=O)C(C)(C)C(=O)N(C)c2cc(OCCCN(CCn3ccc4occc4c3=O)Cc3cccnc3C)ccc21 [Example 575, 1-ethyl-3,3,5-trimethyl-7-(3-{(2-methylpyridin-3-ylmethyl)-[2-(4-oxo-4H-furo[3,2-c]pyridin-5-yl)ethyl]-amino}propoxy)-1,5-dihydrobenzo[b][1,4]diazepine-2,4-dione] | 6.36
CCN1C(=O)C(C)(C)C(=O)N(C)c2cc(OCCCN(CCn3ccc4occc4c3=O)Cc3cnccc3C)ccc21 [Example 590, 1-ethyl-3,3,5-trimethyl-7-(3-{(4-methylpyridin-3-ylmethyl)-[2-(4-oxo-4H-furo[3,2-c]pyridin-5-yl)ethyl]-amino}propoxy)-1,5-dihydrobenzo[b][1,4]diazepine-2,4-dione] | 6.34
CCN1C(=O)C(C)(C)C(=O)N(C)c2cc(OCCCN(CCn3ccc4sccc4c3=O)Cc3cccnc3C)ccc21 [Example 595, 1-ethyl-3,3,5-trimethyl-7-(3-{(2-methylpyridin-3-ylmethyl)-[2-(4-oxo-4H-thieno[3,2-c]pyridin-5-yl)ethyl]-amino}propoxy)-1,5-dihydrobenzo[b][1,4]diazepine-2,4-dione] | 6.30
CCCc1ncccc1CN(CCCOc1ccc2c(c1)N(C)C(=O)C(C)(C)C(=O)N2CC)CCn1ccc2oc(C)cc2c1=O [Example 611, 1-ethyl-3,3,5-trimethyl-7-{3-[[2-(2-methyl-4-oxo-4H-furo[3,2-c]pyridin-5-yl)ethyl]-(2-propylpyridin-3-ylmethyl)amino]propoxy}-1,5-dihydrobenzo[b][1,4]diazepine-2,4-dione dihydrochloride] | 6.51
CCN1C(=O)C(C)(C)C(=O)N(C)c2cc(OCCCN(CCc3cccnc3)S(=O)(=O)c3ccccc3)ccc21 [Example 628, N-[3-(1-ethyl-3,3,5-trimethyl-2,4-dioxo-2,3,4,5-tetrahydro-1H-benzo[b][1,4]diazepin-7-yloxy)propyl]-N-(2-pyridin-3-ylethyl)benzenesulfonamide hydrochloride] | 6.01
CCN1C(=O)C(C)(C)C(=O)N(C)c2cc(OCCCN(CCn3ccc4occc4c3=O)Cc3ccc(C)nc3C)ccc21 [Example 629, 7-(3-{(2,6-dimethylpyridin-3-ylmethyl)-[2-(4-oxo-4H-furo[3,2-c]pyridin-5-yl)ethyl]amino}propoxy)-1-ethyl-3,3,5-trimethyl-1,5-dihydrobenzo[b][1,4]diazepine-2,4-dione dihydrochloride] | 6.12
CCN1C(=O)C(C)(C)C(=O)N(C)c2cc(OCCCN(CCc3cccnc3)C(=O)c3ccccc3)ccc21 [Example 633, N-[3-(1-ethyl-3,3,5-trimethyl-2,4-dioxo-2,3,4,5-tetrahydro-1H-benzo[b][1,4]diazepin-7-yloxy)propyl]-N-(2-pyridin-3-ylethyl)benzamide hydrochloride] | 5.96
CCN1C(=O)C(C)(C)C(=O)N(C)c2cc(OCCCN(CCn3ccc4ccccc4c3=O)S(=O)(=O)c3ccccc3)ccc21 [Example 634, N-[3-(1-ethyl-3,3,5-trimethyl-2,4-dioxo-2,3,4,5-tetrahydro-1H-benzo[b][1,4]diazepin-7-yloxy)propyl]-N-[2-(1-oxo-1H-isoquinolin-2-yl)ethyl]benzenesulfonamide] | 6.44
